What was measured:
human meprin α = biological target: T1, human meprin α (Homo sapiens, UniProt Q16819); type: biochemical; conditions: for Ki: Ki(app) Meprin α, geometric mean of three independent experiments with standard deviation factor; for SF: selectivity factor (Ki(app) meprin β/Ki(app) meprin α): meprin α over meprin β; for reduction of the meprin α selectivity by factor: compared to 16a
T1 sequence (Q16819 66-746): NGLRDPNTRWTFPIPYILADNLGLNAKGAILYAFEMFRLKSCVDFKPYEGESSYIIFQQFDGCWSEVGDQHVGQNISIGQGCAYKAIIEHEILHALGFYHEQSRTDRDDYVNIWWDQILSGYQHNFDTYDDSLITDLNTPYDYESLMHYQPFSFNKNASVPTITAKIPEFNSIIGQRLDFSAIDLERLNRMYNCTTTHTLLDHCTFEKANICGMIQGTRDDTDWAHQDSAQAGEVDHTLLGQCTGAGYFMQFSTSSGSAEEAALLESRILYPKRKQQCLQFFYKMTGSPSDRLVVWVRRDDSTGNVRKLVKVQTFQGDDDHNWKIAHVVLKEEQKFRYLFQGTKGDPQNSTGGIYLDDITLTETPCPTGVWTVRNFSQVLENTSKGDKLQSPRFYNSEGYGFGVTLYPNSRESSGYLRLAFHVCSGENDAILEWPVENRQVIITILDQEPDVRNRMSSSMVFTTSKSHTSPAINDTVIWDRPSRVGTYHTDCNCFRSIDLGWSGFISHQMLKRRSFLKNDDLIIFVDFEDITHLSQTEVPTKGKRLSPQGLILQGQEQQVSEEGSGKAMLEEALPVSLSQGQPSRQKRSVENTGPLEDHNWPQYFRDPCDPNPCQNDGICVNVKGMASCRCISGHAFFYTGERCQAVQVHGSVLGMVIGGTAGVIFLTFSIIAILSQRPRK

human meprin β = biological target: T2, human meprin β (Homo sapiens, UniProt Q16820); type: biochemical; conditions: for Ki: Ki(app) Meprin β, geometric mean of three independent experiments with standard deviation factor; for increased inhibition of meprin β by factor: in comparison to the N-phenyl pyrazole 21b
T2 sequence (Q16820 62-701): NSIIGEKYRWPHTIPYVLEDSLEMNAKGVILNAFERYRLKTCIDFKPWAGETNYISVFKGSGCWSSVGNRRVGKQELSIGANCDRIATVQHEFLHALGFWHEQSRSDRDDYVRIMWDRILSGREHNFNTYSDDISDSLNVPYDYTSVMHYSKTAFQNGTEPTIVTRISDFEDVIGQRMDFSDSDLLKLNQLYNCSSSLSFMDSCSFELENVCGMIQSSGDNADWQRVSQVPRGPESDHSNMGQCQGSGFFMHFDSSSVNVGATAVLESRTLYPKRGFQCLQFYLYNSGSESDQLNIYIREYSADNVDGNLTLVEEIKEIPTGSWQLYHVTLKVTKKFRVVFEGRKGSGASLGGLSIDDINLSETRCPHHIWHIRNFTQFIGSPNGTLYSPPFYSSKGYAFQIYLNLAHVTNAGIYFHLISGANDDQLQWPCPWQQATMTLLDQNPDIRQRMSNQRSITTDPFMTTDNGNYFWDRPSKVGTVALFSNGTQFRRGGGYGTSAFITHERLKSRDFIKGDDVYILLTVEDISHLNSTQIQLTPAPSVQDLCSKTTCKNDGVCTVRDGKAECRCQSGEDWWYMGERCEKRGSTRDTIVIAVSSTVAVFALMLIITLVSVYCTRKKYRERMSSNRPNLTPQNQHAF

| Ki (human meprin α) [nM] | SF: selectivity factor (Ki(app) meprin β/Ki(app) meprin α) (human meprin α) | Ki (human meprin β) [nM] | increased inhibition of meprin β by factor (human meprin β) | reduction of the meprin α selectivity by factor (human meprin α) | improvement in activity against meprin β by factor (human meprin β; compared to 7a) | Structure (SMILES) |
| --- | --- | --- | --- | --- | --- | --- |
| 1 | 291 | 291 | – | – | – | O=C(Cc1c(-c2ccccc2)nn(Cc2ccccc2)c1-c1ccccc1)NO [21e, 2-(1-Benzyl-3,5-diphenyl-pyrazol-4-yl)ethanehydroxamic acid] |
| 4 | 46 | 182 | 3 | – | – | O=C(Cc1c(-c2ccccc2)nn(-c2ccc(C(=O)O)cc2)c1-c1ccccc1)NO [21d, 4-[4-[2-(Hydroxyamino)-2-oxo-ethyl]-3,5-diphenyl-pyrazol-1-yl]benzoic acid] |
| 3.1 | 15 | – | – | 10–20 | – | O=C(Cc1c(-c2ccc3c(c2)OCO3)n[nH]c1-c1cccc(C(=O)O)c1)NO [16e, 3-[3-(1,3-Benzodioxol-5-yl)-4-[2-(hydroxyamino)-2-oxo-ethyl]-1H-pyrazol-5-yl)benzoic acid] |
| – | 2 | – | – | – | – | O=C(Cc1c(-c2ccc(C(=O)O)cc2)n[nH]c1-c1ccc(C(=O)O)cc1)NO [16c, 4-[3-(4-Carboxyphenyl)-4-[2-(hydroxyamino)-2-oxo-ethyl]-1H-pyrazol-5-yl]benzoic acid] |
| 4.2 | 3 | – | – | – | – | O=C(Cc1c(-c2ccc(Cl)c(O)c2F)n[nH]c1-c1ccc(Cl)c(O)c1F)NO [16d, 2-[3,5-Bis(4-chloro-2-fluoro-3-hydroxyphenyl)-1H-pyrazol-4-yl]ethanehydroxamic acid] |
| 20.3 | 2 | 32.5 | – | – | – | O=C(Cc1c(-c2ccc(C(=O)O)cc2)n[nH]c1-c1cccc(C(=O)O)c1)NO [16g, 3-[3-(4-Carboxyphenyl)-4-[2-(hydroxyamino)-2-oxo-ethyl]-1H-pyrazol-5-yl]benzoic acid] |
| 9.6 | 1 | 11.2 | – | – | – | O=C(Cc1c(-c2ccc(C(=O)O)cc2)n[nH]c1-c1ccc(Cl)c(O)c1F)NO [16h, 4-[5-(4-Chloro-2-fluoro-3-hydroxy-phenyl)-4-[2-(hydroxyamino)-2-oxo-ethyl]-1H-pyrazol-3-yl]benzoic acid] |
| – | 1 | – | – | – | – | O=C(Cc1c(-c2cccc(C(=O)O)c2)[nH]nc1[C@H]1CC[C@H](C(=O)O)CC1)NO [16l, 3-[3-(Trans-4-Carboxycyclohexyl)-4-[2-(hydroxyamino)-2-oxo-ethyl]-1H-pyrazol-5-yl]benzoic acid] |
| 4 | 167 | 667 | – | – | – | O=C(Cc1c(-c2ccccc2)nn(-c2ccccc2)c1-c1ccccc1)NO [21b, 2-(1,3,5-Triphenylpyrazol-4-yl)ethanehydroxamic acid] |
| 4 | 53 | 212 | 3 | – | – | O=C(Cc1c(-c2ccccc2)nn(-c2cccc(C(=O)O)c2)c1-c1ccccc1)NO [21c, 3-[4-[2-(Hydroxyamino)-2-oxo-ethyl]-3,5-diphenyl-pyrazol-1-yl]benzoic acid] |
| – | 1 | 14.5 | – | – | – | O=C(Cc1c(-c2cccc(C(=O)O)c2)n[nH]c1-c1cccc(C(=O)O)c1)NO [16b, 3-[3-(3-Carboxyphenyl)-4-[2-(hydroxyamino)-2-oxo-ethyl]-1H-pyrazol-5-yl]benzoic acid] |
| 5.1 | 1 | – | – | – | – | O=C(Cc1c(-c2cccc(C(=O)O)c2)n[nH]c1-c1ccc(Cl)c(O)c1F)NO [16i, 3-[5-(4-Chloro-2-fluoro-3-hydroxy-phenyl)-4-[2-(hydroxyamino)-2-oxo-ethyl]-1H-pyrazol-3-yl]benzoic acid] |
| 10.5 | 9 | – | – | 10–20 | – | O=C(Cc1c(-c2ccc3c(c2)OCO3)n[nH]c1-c1ccc(C(=O)O)cc1)NO [16f, 4-[3-(1,3-Benzodioxol-5-yl)-4-[2-(hydroxyamino)-2-oxo-ethyl]-1H-pyrazol-5-yl)benzoic acid] |

Second part, the compound before the results:

| Structure (SMILES) | Ki (human meprin α) [nM] | SF: selectivity factor (Ki(app) meprin β/Ki(app) meprin α) (human meprin α) | Ki (human meprin β) [nM] | increased inhibition of meprin β by factor (human meprin β) | reduction of the meprin α selectivity by factor (human meprin α) | improvement in activity against meprin β by factor (human meprin β; compared to 7a) |
| --- | --- | --- | --- | --- | --- | --- |
| O=C(Cc1c(C2CCCC(C(=O)O)C2)n[nH]c1-c1ccccc1)NO (centres unmarked) [14r, 3-[4-[2-(Hydroxyamino)-2-oxo-ethyl]-5-phenyl-1H-pyrazol-3-yl]cyclohexanecarboxylic acid] | 1.4 | 39 | – | – | – | – |
| O=C(Cc1c(Cc2ccccc2)n[nH]c1-c1ccccc1)NO [14b, 2-(3-Benzyl-5-phenyl-1H-pyrazol-4-yl)ethanehydroxamic acid] | – | 25 | – | – | – | – |
| O=C(Cc1c(-c2ccccc2)[nH]nc1[C@H]1CC[C@H](C(=O)O)CC1)NO [14s, Trans-4-[4-[2-(hydroxyamino)-2-oxo-ethyl]-5-phenyl-1H-pyrazol-3-yl]cyclohexanecarboxylic acid] | 11.6 | 8 | – | – | – | – |
| O=C(Cc1c(-c2cccc(-c3nnn[nH]3)c2)n[nH]c1-c1ccccc1)NO [14p, 2-[5-Phenyl-3-[3-(1H-tetrazol-5-yl)phenyl]-1H-pyrazol-4-yl]ethanehydroxamic acid] | 0.7 | 10 | 6.7 | – | – | 16 |
| O=C(Cc1c(-c2cccc(C(=O)O)c2)n[nH]c1-c1ccccc1)NO [14j, 3-[4-[2-(Hydroxyamino)-2-oxo-ethyl]-5-phenyl-1H-pyrazol-3-yl]benzoic acid] | 7.5 | 6 | – | – | – | – |
| Cc1n[nH]c(-c2ccccc2)c1CC(=O)NO [14a, 2-(3-Methyl-5-phenyl-1H-pyrazol-4-yl)ethanehydroxamic acid] | – | 7 | – | – | – | – |
| O=C(Cc1c(-c2ccc(Cl)c(O)c2F)n[nH]c1-c1ccccc1)NO [14l, 2-[3-(4-Chloro-2-fluoro-3-hydroxyphenyl)-5-phenyl-1H-pyrazol-4-yl]ethanehydroxamic acid] | 2.2 | 31 | – | – | – | – |
| O=C(Cc1c(C2CCCC2)n[nH]c1-c1ccccc1)NO [14c, 2-(3-Cyclopentyl-5-phenyl-1H-pyrazol-4-yl)ethanehydroxamic acid] | 5.6 | 53 | – | – | – | – |
| O=C(Cc1c(-c2c[nH]nc2C(F)(F)F)n[nH]c1-c1ccccc1)NO [14o, 2-[5-Phenyl-3-[3-(trifluoromethyl)-1H-pyrazol-4-yl]-1H-pyrazol-4-yl]ethanehydroxamic acid] | 1.6 | 55 | – | – | – | – |
| N#Cc1ccc(-c2n[nH]c(-c3ccccc3)c2CC(=O)NO)cc1 [14i, 2-[3-(4-Cyanophenyl)-5-phenyl-1H-pyrazol-4-yl]ethanehydroxamic acid] | 13.6 | 71 | – | – | – | – |
| O=C(Cc1c(-c2cc(O)no2)n[nH]c1-c1ccccc1)NO [14n, 2-[3-(3-Hydroxyisoxazol-5-yl)-5-phenyl-1H-pyrazol-4-yl]ethanehydroxamic acid] | – | 1 | – | – | – | – |
| O=C(Cc1c(-c2ccccc2)[nH]nc1[C@H]1CC[C@@H](C(=O)O)CC1)NO [14t, Cis-4-[4-[2-(hydroxyamino)-2-oxo-ethyl]-5-phenyl-1H-pyrazol-3-yl]cyclohexanecarboxylic acid] | – | 4 | – | – | – | – |
| COc1ccc(-c2n[nH]c(-c3ccccc3)c2CC(=O)NO)cc1 [14e, 2-[3-(4-Methoxyphenyl)-5-phenyl-1H-pyrazol-4-yl]ethanehydroxamic acid] | 1.3 | 48 | – | – | – | – |
| N#Cc1cccc(-c2n[nH]c(-c3ccccc3)c2CC(=O)NO)c1 [14h, 2-[3-(3-Cyanophenyl)-5-phenyl-1H-pyrazol-4-yl]ethanehydroxamic acid] | 4.8 | 67 | – | – | – | – |
| O=C(Cc1c(-c2ccc(C(=O)O)cc2)n[nH]c1-c1ccccc1)NO [14k, 4-[4-[2-(Hydroxyamino)-2-oxo-ethyl]-5-phenyl-1H-pyrazol-3-yl]benzoic acid] | 17.2 | 7 | – | – | – | – |
